Test results from patent publication US11491139B2, “Inhibition of YAP for breaking tumor immune tolerance” (The Johns Hopkins University, priority 2015, dated 2022).

Tests used:
B16-melanoma cells = test: B16-melanoma growth experiments in mice (tumor volume); format: in vivo; settings: C57BL/6 mice challenged with B16-melanoma, Verteporfin 2 mg/mouse i.p. every two days, anti-PD-1 (G4) 100 μg/mouse i.p. twice a week, GVAX 1×10^6 irradiated cells s.c., FIG. 4
Protocol: C57BL/6 mice were challenged with B16-melanoma cells and tumor progression was monitored as in FIG. 3. Cohorts of mice were injected treated with either VP, GVAX, anti-PD1 antibody, VP and anti-PD-1, or VP and GVAX beginning one day post-tumor injection. Control mice were left untreated (n=5/group). Shown are the mean tumor volumes for the groups +/−SD.
B16-melanoma cells were cultured in vitro in DMEM plus 10% heat inactivated Fetal Bovine Serum and were detached by trypsinization and washed prior to s.c. injection into the footpads of C57BL/6 mice (NCI). 1-5×10^4 B16 melanoma cells were injected each mouse in the footpad. In some cases, 10^5 B16 cells were injected. Once tumors were palpable (7-10 days), […] of 1×10^6 lethally irradiated (150Gy) B16 GM-vaccine cells were injected subcutaneously into the contralateral limb. For all these experiments, 5-10 mice were used per group. A hybridoma cell line expressing a blocking anti-PD-1 antibody (clone G4) was obtained from Dr. Charles Drake (JHH). […] Tumor volume was determined by digital caliper measurements throughout the experiment. The relative tumor volume was calculated by the formula: Length (mm)×Width (mm)×Height (mm)×0.5326×0.01. […] Cytokines and Foxp3 were measured by intracellular flow cytometry.

[1] = statement with reference [17]; may limit bioavailability; cited from earlier work

Which results are given for Verteporfin?
tumor growth / tumor size (tumor volume) (B16-melanoma cells): modest reduction in tumor size; tumor growth / tumor size (tumor volume) (B16-melanoma cells; listed as VP): did not alter the course of tumor growth; solubility [1]: prone to solubility issues
